Measurements from patent US20240116922A1, “IMIDAZO[1,2-A]PYRIDINE DERIVATIVES AS IRAK4 INHIBITORS AND THEIR USE IN THE TREATMENT OF DISEASE” (BIOGEN MA INC., priority 2020, published 2024).
Values after ≈ are worked out from the molar mass of the structure shown.

Experiment: Kinetic solubility assay (CLND), pH 6.8
Assay type: physicochemical
Conditions: potassium phosphate buffer pH 6.8, 2% DMSO, 24 hours at ambient temperature; for solubility kinetic at 24 h: aqueous buffer, kinetic from dmso stock

CC(C)Oc1nc2nc(C34COC(C3)C4)cn2cc1C(=O)Nc1cccn([C@@H]2C[C@@H]2F)c1=O (racemic) [Example 87, (rac)-Cis-2-(2-oxabicyclo[2.1.1]hexan-4-yl)-N-(1-(2-fluorocyclopropyl)-2-oxo-1,2-dihydropyridin-3-yl)-7-isopropoxyimidazo[1,2-a]pyrimidine-6-carboxamide]
solubility kinetic at 24 h: 48.4 µg/mL (≈ 107 µM)

COC[C@]12C[C@](c3cn4cc(C(=O)Nc5cccn(C6CC6F)c5=O)c(OC(C)C)nc4n3)(CO1)C2 (mixture of isomers) [Example 90, (rac)-Cis-N-(1-(2-fluorocyclopropyl)-2-oxo-1,2-dihydropyridin-3-yl)-7-isopropoxy-2-(1-(methoxymethyl)-2-oxabicyclo[2.1.1]hexan-4-yl)imidazo[1,2-a]pyrimidine-6-carboxamide]
pH 6.8 Solubility (ug/mL): 74.8 ug/mL

CC(C)Oc1nc2nc(C34COC(C)(C3)C4)cn2cc1C(=O)Nc1cccn([C@@H]2C[C@H]2C)c1=O (racemic) [Example 95, (rac)-trans-7-isopropoxy-2-(1-methyl-2-oxabicyclo[2.1.1]hexan-4-yl)-N-(1-(2-methylcyclopropyl)-2-oxo-1,2-dihydropyridin-3-yl)imidazo[1,2-a]pyrimidine-6-carboxamide]
solubility kinetic at 24 h: 35.3 µg/mL (≈ 76.2 µM)

CC(C)Oc1cc2nc(C34COC(C)(C3)C4)cn2cc1C(=O)Nc1cccn([C@@H]2C[C@@H]2F)c1=O (racemic) [Example 97, (rac)-Cis-N-(1-(2-fluorocyclopropyl)-2-oxo-1,2-dihydropyridin-3-yl)-7-isopropoxy-2-(1-methyl-2-oxabicyclo[2.1.1]hexan-4-yl)imidazo[1,2-a]pyridine-6-carboxamide]
solubility kinetic at 24 h: 59.5 µg/mL (≈ 128 µM)

CC(C)Oc1nc2nc([C@]34CC[C@](C)(C3)OC4)cn2cc1C(=O)Nc1cccn(C2CC2)c1=O (single isomer, unassigned) [Example 13]
solubility kinetic at 24 h: 20.3 µg/mL (≈ 43.8 µM)

CC(C)Oc1nc2nc([C@]34CC[C@](CF)(C3)OC4)cn2cc1C(=O)Nc1cccn(C2CC2)c1=O (single isomer, unassigned) [Example 47]
solubility kinetic at 24 h: 9 µg/mL (≈ 18.7 µM)

CC(C)Oc1nc2nc(C34COC(C3)C4)cn2cc1C(=O)Nc1cccn([C@@H]2C[C@@H]2F)c1=O (single isomer, unassigned) [Example 88]
solubility kinetic at 24 h: 20.7 µg/mL (≈ 45.6 µM)

CC(C)Oc1nc2nc(C34COC(C3)C4)cn2cc1C(=O)Nc1cccn([C@H]2C[C@H]2F)c1=O (single isomer, unassigned) [Example 89]
solubility kinetic at 24 h: 23.9 µg/mL (≈ 52.7 µM)

CC(C)Oc1nc2nc([C@]34CC[C@](C)(C3)OC4)cn2cc1C(=O)Nc1cccn([C@@H]2C[C@H]2F)c1=O (single isomer, unassigned) [Example 120]
solubility kinetic at 24 h: 76.7 µg/mL (≈ 159 µM)

CC(C)Oc1nc2nc([C@]34CC[C@](C)(C3)OC4)cn2cc1C(=O)Nc1cccn([C@H]2C[C@@H]2F)c1=O (single isomer, unassigned) [Example 121]
solubility kinetic at 24 h: 33.9 µg/mL (≈ 70.4 µM)

CC(C)Oc1nc2nc([C@@]34CC[C@@](C)(C3)OC4)cn2cc1C(=O)Nc1cccn([C@@H]2C[C@H]2F)c1=O (single isomer, unassigned) [Example 122]
solubility kinetic at 24 h: 48.8 µg/mL (≈ 101 µM)

CC(C)Oc1nc2nc([C@@]34CC[C@@](C)(C3)OC4)cn2cc1C(=O)Nc1cccn([C@H]2C[C@@H]2F)c1=O (single isomer, unassigned) [Example 123]
solubility kinetic at 24 h: 73 µg/mL (≈ 152 µM)

CC(C)Oc1cc2nc(C34COC(C)(C3)C4)cn2cc1C(=O)Nc1cccn([C@@H]2C[C@H]2F)c1=O (single isomer, unassigned) [Example 154]
solubility kinetic at 24 h: 37.2 µg/mL (≈ 79.7 µM)

CC(C)Oc1nc2nc(C34COC(C)(C3)C4)cn2cc1C(=O)Nc1cccn([C@@H]2C[C@H]2C)c1=O (single isomer, unassigned) [Example 156]
solubility kinetic at 24 h: 62.8 µg/mL (≈ 135 µM)

CCC12CC(c3cn4cc(C(=O)Nc5cccn(C6CC6)c5=O)c(OC(C)C)nc4n3)(CO1)C2 [Example 31]
solubility kinetic at 24 h: 24.2 µg/mL (≈ 52.2 µM)
